Measurements: patent publication US7390875B2, “Method for binding, in solution, a peptide and a lipophilic vector and uses thereof” (Institut Pasteur de Lille, priority 2000, dated 2008)
Starred links: 1 amine or outer side, 2 acyl side, 3 side chain; linkers in the order of their positions; H or OH if unused. Hydrazinoacetyl = O=C(CNN[*:1])[*:2]

Tested on: class II molecules of the MHC at the surface of COLO 205 cells
Test: Quantification of the expression of class II MHC molecules at the surface of COLO 205 cells after incubation with lipopeptides (flow cytometry)
Format: cell-based, human
Details: Table IIIb; for Ratio (mean fluorescence treated vs non-treated cells): L243 antibody / ALEXA 488
Description: 2) Protocol for Quantification of the Expression of Molecules of Class II of the Major Histocompatibility Complex (MHC) at the Surface of the Cells.
The COLO 205 cells (human cell line obtained from a carcinoma of the colon) come from the ATCC (American Type Culture Collection) cell bank. They are cultivated in an RPMI 1640 medium (Gibco BRL, Courbevoie, France) with 10% of fetal calf serum (FCS) and 5 mM of sodium pyruvate, and incubated at 37° C. in the presence of 5% of CO2. […]
The surface expression of the class II molecules of the MHC is analysed using flow cytometry with a Coulter EPICS II cytometer, at the rate of 10,000 events per sample. The fluorescence intensity observed is directly proportional to the quantity of class II molecules of the MHC present on the surface of the cells. The mean fluorescence value observed for the non-treated cells and for the treated cells (“Mean” column in Table III) makes it possible to calculate a ratio between the mean fluorescence value of the non-treated cells and the mean fluorescence value for the treated cells (“Ratio” column in Table III). The control consists in incubating the cells in the absence of lipopeptides.

Q: Which results are given for “L-MU-IFNγc: presumably peptide Mu-IFNγ c (SEQ ID NO: 12) coupled with palmitoyl vector (IIIa); synthesis not described (H-K(Hydrazinoacetyl)AKFEVNNPQVQRQAFNELIRVVHQLLPESSLRKRKRSR-NH2; also: palmitoyl vector (IIIa) coupled by hydrazone bond)”?
A: Ratio (mean fluorescence treated vs non-treated cells) (5 μM lipopeptide): 2.14; Mean (mean fluorescence value) (5 μM lipopeptide, L243 antibody revealed by second antibody coupled to ALEXA 488, control mean 0.607): 1.3; Ratio (mean fluorescence treated vs non-treated cells) (10 μM lipopeptide): 2.83; Mean (mean fluorescence value) (10 μM lipopeptide, L243 antibody / ALEXA 488, control mean 0.607): 1.72; Ratio (mean fluorescence treated vs non-treated cells) (35 μM lipopeptide): 24.8; Mean (mean fluorescence value) (35 μM lipopeptide, L243 antibody / ALEXA 488, control mean 0.607): 15.1
